Structures are written as SMILES. Activity calls are given as the source filed them.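 Rule for the calls: active = either panel giving IC50 at or below 10 µM; inactive = both panels giving IC50 over 10 µM.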

Broadly, the IC50 is the midpoint of a concentration-inhibition curve.

The target in one assay is Melanocortin receptor 4 (Homo sapiens) (UniProt P32245). The experiment in a line: inhibition of MC4R-driven cAMP production – cell-based, FRET, biased ligands, late-stage follow-up (AID 651554). The conditions noted are these: U2OS MC4R, Melanotan II cAMP TR-FRET antagonist; run 1. For orientation: Changes in cAMP serve as a functional read-out for many G protein-coupled receptors.
Chain of Melanocortin receptor 4 (Homo sapiens) (P32245 whole entry, looked up): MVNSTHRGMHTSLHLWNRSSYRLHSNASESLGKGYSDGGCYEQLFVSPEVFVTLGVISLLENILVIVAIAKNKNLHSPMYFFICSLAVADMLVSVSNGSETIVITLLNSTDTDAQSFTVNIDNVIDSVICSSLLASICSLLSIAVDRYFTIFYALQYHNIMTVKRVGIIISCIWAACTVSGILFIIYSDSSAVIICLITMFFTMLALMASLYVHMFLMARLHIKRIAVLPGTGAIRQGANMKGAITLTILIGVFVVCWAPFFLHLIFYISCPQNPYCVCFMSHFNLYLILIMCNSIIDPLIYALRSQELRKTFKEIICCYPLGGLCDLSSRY
Regarding `C#CC(=O)N(c1ccc(OC)c(OC)c1)C(C(=O)NC1CCCC1)c1cccs1` (stereo not given), the IC50 was > 50 µM (inactive). Still for that read-out and setting: the figure for `COc1ccccc1C1(CCNC(C)c2cccs2)CCOC(C(C)C)C1` (stereo not given) is 8.15 µM; for `CNC(=O)c1cc(Oc2ccc(NC(=O)CNc3ccc(Cl)c(C(F)(F)F)c3)cc2)ccn1` it is > 50 µM (inactive); for `Cc1ccccc1CN1Cc2cnnn2-c2ccccc2C1C#N` (stereo not given) it is > 50 µM (inactive).

Regarding `CC1CCCCN1S(=O)(=O)c1ccc(NC(=O)c2nc(S(C)(=O)=O)ncc2Cl)cc1` (stereo not given), the IC50 entry was “inactive”. As for `CNC(=O)c1cc(Oc2ccc(NC(=O)Nc3ccc(Cl)c(C(F)(F)F)c3)cc2)ccn1`, the IC50 result is “inactive”. On the same count and under the same terms, then `CCC1CCCCN1S(=O)(=O)c1ccc(NC(=O)c2ccccc2)cc1` (stereo not given), with > 50 µM (inactive).

Turning to `COc1ccc(N(C(C)=O)C(C(=O)NC2CCCC2)c2cccs2)cc1OC` (stereo not given), the IC50 is > 50 µM (inactive). The same measure, in the same setting: then `CNC(=O)c1cc(Oc2ccc(NCC(=O)Nc3ccc(Cl)c(C(F)(F)F)c3)cc2)ccn1`, with > 50 µM (inactive); and `CC(=O)c1ccc(Nc2nc3ccc(C(=O)N(CCC(C)C)CCC(C)C)cc3n2CCCN2CCCCC2)cc1`, with 0.0174 µM. Same read-out and setting: then `CCC1CCCCN1S(=O)(=O)c1ccc(NC(=O)c2cccc(S(C)(=O)=O)c2)cc1` (stereo not given), with > 50 µM (inactive); and `CCC1CCCCN1S(=O)(=O)c1ccc(NC(=O)c2ccnc(SC)n2)cc1` (stereo not given), with > 50 µM (inactive).

The same assay, now with this note: U2OS MC4R, Melanotan II cAMP TR-FRET antagonist; run 2.
Take `COc1ccc(N(C(=O)Cc2cccs2)C(C(=O)NC2CCCC2)c2cccs2)cc1OC` (stereo not given): the IC50 was > 50 µM (inactive). Still for that read-out and setting: the figure for `CCC1CCCCN1S(=O)(=O)c1ccc(NC(=O)c2nc(S(C)(=O)=O)ncc2Br)cc1` (stereo not given) is > 50 µM (inactive); for `N#CC1c2ccccc2-n2nncc2CN1C(=O)c1ccccc1` (stereo not given) it is > 50 µM (inactive); for `CC(=O)N(c1ccccc1)C(C(=O)NC1CCCC1)c1cccs1` (stereo not given) it is > 50 µM (inactive). In the case of `Cc1ccccc1CN1Cc2ccccc2-n2nncc2C1`, the IC50 was > 50 µM (inactive).

In the case of `Cc1ccc(CN2Cc3ccccc3-n3nncc3C2)c(C)c1`, the IC50 is > 50 µM (inactive). Still for that read-out and setting: the figure for `CCC1CCCCN1S(=O)(=O)c1ccc(NC(=O)c2ccccc2)cc1` (stereo not given) is > 50 µM (inactive); for `O=C(NC1CCCC1)C(Nc1ccccc1)c1cccs1` (stereo not given) it is > 50 µM (inactive). On the same count and under the same terms, then `Cc1ccc(CN2Cc3cnnn3-c3ccccc3C2C#N)c(C)c1` (stereo not given), with > 50 µM (inactive). Still for that read-out and setting: then `CCC1CCCCN1S(=O)(=O)c1ccc(NC(=O)c2ccnc(S(C)=O)n2)cc1` (stereo not given), with > 50 µM (inactive); and `CCC1CCCCN1S(=O)(=O)c1ccc(NC(=O)c2ccnc(S(C)(=O)=O)n2)cc1` (stereo not given), with “inactive”. `CC(=O)c1ccc(Nc2nc3ccc(C(=O)N(CCC(C)C)CCC(C)C)cc3n2CCCN2CCCCC2)cc1`: the IC50 is 0.0365 µM. As to `COc1ccc(N(C(=O)c2ccco2)C(C(=O)NC2CCCC2)c2cccs2)cc1OC` (stereo not given), the IC50 was > 50 µM (inactive).

(Values after PubChem BioAssay AID651554 (The Scripps Research Institute Molecular Screening Center, 2012).)
